± gives the standard deviation of the averaged measurements.

Here are results for eight test systems from the supplement of paper PMC6045584.

Compound in one experiment: Cn1nnc2c(C(N)=O)ncn2c1=O [TEMOZOLOMIDE]
In words: surviving fraction relative to DMSO-only wells; higher = less growth inhibition. Particulars: exposure time: 5 days. Summed up:
(§1)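 In 384-well plates, 250–500 log-phase tumour cells per well were given 24 hours before five days of continuous exposure to inhibitors at 0.5, 1, 5, 10, 50, 100, 500 and 1000 nM. Surviving fraction is luminescence from CellTiter-Glo, normalised to the median of wells containing DMSO alone. Reading took place after 10 minutes at room temperature.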

Compound in a further experiment: C[C@@H](Oc1cc(-c2cnn(C3CCNCC3)c2)cnc1N)c1c(Cl)ccc(F)c1Cl [CRIZOTINIB]
Described as above. Particulars: exposure time: 5 days. Summed up: as §1

With LNCAP PROSTATE, the surviving fraction was found to be 0.966 ± 0.088 in the experiment with TEMOZOLOMIDE (0.5 nM); 0.915 ± 0.073 in the experiment with TEMOZOLOMIDE (1 nM); 0.985 ± 0.17 in the experiment with TEMOZOLOMIDE (5 nM); 0.8907 ± 0.0074 with TEMOZOLOMIDE (10 nM); 0.93 ± 0.034 in the experiment with TEMOZOLOMIDE (50 nM); 0.963 ± 0.092 with TEMOZOLOMIDE (100 nM). The surviving fraction came out at 0.897 ± 0.037 with TEMOZOLOMIDE (500 nM); 0.924 ± 0.083 in the experiment with TEMOZOLOMIDE (1000 nM); 1.01 ± 0.15 with CRIZOTINIB (0.5 nM); 0.924 ± 0.094 with CRIZOTINIB (10 nM); 0.872 ± 0.061 in the experiment with CRIZOTINIB (50 nM); 0.904 ± 0.12 in the experiment with CRIZOTINIB (100 nM). For the same test system, the surviving fraction with CRIZOTINIB (500 nM) was 0.653 ± 0.063; in the experiment with CRIZOTINIB (1000 nM), 0.425 ± 0.065.

For HCC202 BREAST, the surviving fraction with TEMOZOLOMIDE (0.5 nM) stood at 1.08 ± 0.35; with TEMOZOLOMIDE (1 nM), 1 ± 0.13; in the experiment with TEMOZOLOMIDE (5 nM), 1.07 ± 0.32; in the experiment with TEMOZOLOMIDE (10 nM), 0.9 ± 0.071; with TEMOZOLOMIDE (50 nM) it was 1.01 ± 0.17; with TEMOZOLOMIDE (100 nM) it was 1.29 ± 0.14. Besides, the surviving fraction was determined as 0.975 ± 0.035 in the experiment with TEMOZOLOMIDE (500 nM); 1.254 ± 0.011 with TEMOZOLOMIDE (1000 nM); 1.38 ± 0.033 with CRIZOTINIB (0.5 nM); 1.24 ± 0.47 with CRIZOTINIB (5 nM); 1.05 ± 0.069 with CRIZOTINIB (10 nM); 1.13 ± 0.018 with CRIZOTINIB (50 nM). In addition, the surviving fraction with CRIZOTINIB (100 nM) was 1.25 ± 0.37; in the experiment with CRIZOTINIB (500 nM), 1.12 ± 0.12; in the experiment with CRIZOTINIB (1000 nM), 1.246 ± 0.0085.

Take SCC90 HEADNECK: the surviving fraction in the experiment with TEMOZOLOMIDE (0.5 nM) was 0.973 ± 0.039; with TEMOZOLOMIDE (1 nM), 1.16 ± 0.11; in the experiment with TEMOZOLOMIDE (5 nM), 1.05 ± 0.053; in the experiment with TEMOZOLOMIDE (10 nM), 1.02 ± 0.062; with TEMOZOLOMIDE (50 nM), 1.08 ± 0.073; in the experiment with TEMOZOLOMIDE (100 nM) it was 1.06 ± 0.2. Moreover, the surviving fraction with TEMOZOLOMIDE (500 nM) was found to be 1.1 ± 0.088; with TEMOZOLOMIDE (1000 nM) it was 1.01 ± 0.057; with CRIZOTINIB (0.5 nM) it was 1.06 ± 0.036; with CRIZOTINIB (1 nM) it was 0.972 ± 0.058; in the experiment with CRIZOTINIB (5 nM) it was 1.04 ± 0.087; with CRIZOTINIB (10 nM), 1.1 ± 0.067. Moreover, the surviving fraction came to 1.08 ± 0.0074 with CRIZOTINIB (50 nM), 1.12 ± 0.066 with CRIZOTINIB (100 nM), 0.9977 ± 0.0097 in the experiment with CRIZOTINIB (500 nM) and 0.762 ± 0.085 in the experiment with CRIZOTINIB (1000 nM).

Regarding NY BONE, the surviving fraction with TEMOZOLOMIDE (0.5 nM) turned out to be 1.01 ± 0.033; with TEMOZOLOMIDE (1 nM) it was 1.05 ± 0.018; in the experiment with TEMOZOLOMIDE (5 nM), 1.01 ± 0.066; with TEMOZOLOMIDE (10 nM) it was 1.09 ± 0.035; with TEMOZOLOMIDE (50 nM), 1.063 ± 0.004; with TEMOZOLOMIDE (100 nM) it was 1.09 ± 0.029. In addition, the surviving fraction came out at 1.014 ± 0.0032 with TEMOZOLOMIDE (500 nM); 1.02 ± 0.013 with TEMOZOLOMIDE (1000 nM); 1.07 ± 0.052 with CRIZOTINIB (0.5 nM); 1.06 ± 0.047 with CRIZOTINIB (1 nM); 1.12 ± 0.041 in the experiment with CRIZOTINIB (5 nM); 1.09 ± 0.038 in the experiment with CRIZOTINIB (10 nM). The surviving fraction with CRIZOTINIB (50 nM) was determined as 1.08 ± 0.035; with CRIZOTINIB (100 nM), 1.02 ± 0.021; in the experiment with CRIZOTINIB (500 nM), 0.883 ± 0.026; with CRIZOTINIB (1000 nM), 0.577 ± 0.018.

OSHN BONE: the surviving fraction with TEMOZOLOMIDE (0.5 nM) was 1.05 ± 0.014; with TEMOZOLOMIDE (1 nM), 1.08 ± 0.018; with TEMOZOLOMIDE (5 nM), 1.06 ± 0.018; with TEMOZOLOMIDE (10 nM), 1.13 ± 0.035; with TEMOZOLOMIDE (50 nM), 1.07 ± 0.016; with TEMOZOLOMIDE (100 nM), 1.1 ± 0.028. Also, the surviving fraction amounted to 1.081 ± 0.0068 with TEMOZOLOMIDE (500 nM); 1.1 ± 0.018 in the experiment with TEMOZOLOMIDE (1000 nM); 1.11 ± 0.026 with CRIZOTINIB (0.5 nM); 1.12 ± 0.035 with CRIZOTINIB (1 nM); 1.12 ± 0.032 with CRIZOTINIB (5 nM); 1.14 ± 0.027 in the experiment with CRIZOTINIB (10 nM). The surviving fraction was found to be 1.12 ± 0.081 with CRIZOTINIB (50 nM), 1.14 ± 0.044 with CRIZOTINIB (100 nM), 1.08 ± 0.048 with CRIZOTINIB (500 nM) and 0.677 ± 0.067 in the experiment with CRIZOTINIB (1000 nM).

With SCC47 HEADNECK, the surviving fraction was 0.956 ± 0.035 with TEMOZOLOMIDE (0.5 nM); 1.06 ± 0.074 in the experiment with TEMOZOLOMIDE (1 nM); 1.1 ± 0.035 with TEMOZOLOMIDE (5 nM); 1.12 ± 0.085 in the experiment with TEMOZOLOMIDE (10 nM); 1.04 ± 0.11 in the experiment with TEMOZOLOMIDE (50 nM); 1.22 ± 0.14 with TEMOZOLOMIDE (100 nM). Further, the surviving fraction is 1.1 ± 0.06 with TEMOZOLOMIDE (500 nM); 1.14 ± 0.17 with TEMOZOLOMIDE (1000 nM); 1.11 ± 0.056 with CRIZOTINIB (0.5 nM); 1.08 ± 0.068 with CRIZOTINIB (1 nM); 1.13 ± 0.048 in the experiment with CRIZOTINIB (5 nM); 1.16 ± 0.034 with CRIZOTINIB (10 nM). In addition, the values for the surviving fraction with CRIZOTINIB (50 nM) and with CRIZOTINIB (100 nM) were 1.18 ± 0.018 and 1.15 ± 0.11, respectively.

For CAL72 BONE, the surviving fraction with TEMOZOLOMIDE (0.5 nM) was 1.04 ± 0.056; with TEMOZOLOMIDE (1 nM) it was 0.996 ± 0.098; with TEMOZOLOMIDE (5 nM), 1.04 ± 0.083; in the experiment with TEMOZOLOMIDE (10 nM), 1.02 ± 0.081; with TEMOZOLOMIDE (50 nM), 1.1 ± 0.05; with TEMOZOLOMIDE (100 nM) it was 1.09 ± 0.087. Further, the surviving fraction with TEMOZOLOMIDE (500 nM) is 1.076 ± 0.0011; in the experiment with TEMOZOLOMIDE (1000 nM), 1.07 ± 0.094; in the experiment with CRIZOTINIB (0.5 nM), 1.09 ± 0.13; in the experiment with CRIZOTINIB (1 nM) it was 1.09 ± 0.13; in the experiment with CRIZOTINIB (5 nM), 1.09 ± 0.12; with CRIZOTINIB (10 nM) it was 1.11 ± 0.17. Also, the surviving fraction in the experiment with CRIZOTINIB (50 nM) was found to be 1.08 ± 0.15; with CRIZOTINIB (100 nM) it was 1.1 ± 0.11; in the experiment with CRIZOTINIB (500 nM), 0.859 ± 0.15; with CRIZOTINIB (1000 nM), 0.814 ± 0.17.

Regarding 93VU HEADNECK, the surviving fraction turned out to be 1.02 ± 0.1 in the experiment with TEMOZOLOMIDE (0.5 nM); 1.04 ± 0.015 in the experiment with TEMOZOLOMIDE (1 nM); 1.09 ± 0.057 in the experiment with TEMOZOLOMIDE (5 nM); 1.03 ± 0.14 in the experiment with TEMOZOLOMIDE (10 nM); 1.11 ± 0.022 with TEMOZOLOMIDE (50 nM); 1.17 ± 0.12 with TEMOZOLOMIDE (100 nM). Moreover, the surviving fraction with TEMOZOLOMIDE (500 nM) came out at 1 ± 0.11; in the experiment with TEMOZOLOMIDE (1000 nM), 1.02 ± 0.081; in the experiment with CRIZOTINIB (0.5 nM), 1.08 ± 0.14; in the experiment with CRIZOTINIB (1 nM), 1.09 ± 0.072; with CRIZOTINIB (5 nM), 1.08 ± 0.12; with CRIZOTINIB (10 nM), 1.16 ± 0.037. In addition, the surviving fraction with CRIZOTINIB (50 nM) was 1.14 ± 0.14; in the experiment with CRIZOTINIB (100 nM), 1.18 ± 0.081; with CRIZOTINIB (1000 nM), 0.853 ± 0.038.
